Measured values: patent publication US20260224588A1, “BENZODIAZEPINONE-DERIVED INHIBITORS OF EGFR AND HER2” (The Research Foundation for the State University of New York, priority 2023, published 2026)

Assays:
[1] = target: T1, EGFR L858R/T790M/C797S kinase domain (Homo sapiens, UniProt P00533, C797S/L858R/T790M); assay: HTRF-based activity assay; type: biochemical; details: 100 μM ATP, enzyme 0.02 nM, read-out: Biochemical EGFR IC50, LRTMCS
T1 construct: The EGFR kinase domain (residues 696-1022) was cloned into pTriEx; 6xHis (N, cleaved yes); GST (N, cleaved yes); made in house; host or cells: SF9 insect cells (baculovirus)
Description: Protein expression and purification. The EGFR kinase domain (residues 696-1022) was cloned into pTriEx with an N-terminal 6×His-glutathione S-transferase (GST) fusion tag followed by a TEV protease cleavage site. EGFR WT, L858R, L858R/T790M, L858R/T790M/C797S was expressed after baculoviral infection in SF9 cells and EGFR(T790M/V948R) was expressed in SF21 cells. Briefly, cells were pelleted and resuspended in lysis buffer composed of 50 mM Tris pH 8.0, 500 mM NaCl, 1 mM tris(2-carboxyethyl)phosphine (TCEP), and 5% glycerol. Cells were lysed via sonication prior to ultracentrifugation at >200,000 g for 1 h. Imidazole pH 8.0 was added to the supernatant for a final concentration of 40 mM and flowed through a column containing Ni-NTA agarose beads. The resin was washed with lysis buffer supplemented with 40 mM imidazole and eluted with lysis buffer containing 200 mM imidazole. Eluted EGFR kinase domain was dialyzed overnight in the presence of 5% (w/w) TEV protease against dialysis buffer containing 50 mM Tris pH 8.0, 500 mM NaCl, 1 mM TCEP, and 5% glycerol. The cleaved protein was passed through Ni-NTA resin to remove the 6×His-GST fusion protein and TEV prior to size exclusion chromatography on a prep-grade Superdex S200 column in 50 mM Tris pH 8.0, 500 mM NaCl, 1 mM TCEP, and 5% glycerol.
HTRF Assays. Biochemical assays for EGFR domains were carried out using a homogeneous time-resolved fluorescence (HTRF) KinEASE-TK (Cisbio) assay, as described previously. Assays were optimized for ATP concentration of 100 μM with enzyme concentrations WT EGFR 10 nM, L858R 0.1 nM, L858R/T790M at 0.02 nM and L858R/T790M/C797S at 0.02 nM. Inhibitor compounds in DMSO were dispensed directly in 384-well plates with the D300 digital dispenser (Hewlett Packard) followed immediately by the addition of aqueous buffered solutions using the Multidrop Combi Reagent Dispenser (Thermo Fischer). […] The curves were fitted using a non-linear regression model with a sigmoidal dose response.

[2] = target: T2, ABL1(Q252H)-nonphosphorylated (Homo sapiens, UniProt P00519, Q252H); assay: KINOMEscan; type: binding; details: 1 μM of compound 4; read-out: POC
T2 construct: purchased Eurofins DiscoverX Corporation

ALK(C1156Y) = ALK(C1156Y) (Homo sapiens, UniProt Q9UM73, C1156Y); assay: KINOMEscan; type: binding; details: 1 μM of compound 4; read-out: POC
CLK3 = CLK3 (Homo sapiens, UniProt P49761); assay: KINOMEscan; type: binding; details: 1 μM of compound 4; read-out: POC
DAPK3 = DAPK3 (Homo sapiens, UniProt O43293); assay: KINOMEscan; type: binding; details: 1 μM of compound 4; read-out: POC
DDR2 = DDR2 (Homo sapiens, UniProt Q16832); assay: KINOMEscan; type: binding; details: 1 μM of compound 4; read-out: POC
FAK = target: T3, FAK (Homo sapiens, UniProt Q05397); assay: KINOMEscan; type: binding; details: 1 μM of compound 4; read-out: POC
T3 construct: purchased Eurofins DiscoverX Corporation

GRK1 = target: T4, GRK1 (Homo sapiens, UniProt Q15835); assay: KINOMEscan; type: binding; details: 1 μM of compound 4; read-out: POC
T4 construct: purchased Eurofins DiscoverX Corporation

KIT(V559D + V654A) = KIT(V559D + V654A) (Homo sapiens, UniProt P10721, V559D/V654A); assay: KINOMEscan; type: binding; details: 1 μM of compound 4; read-out: POC
MAP4K3 = MAP4K3 (Homo sapiens, UniProt Q8IVH8); assay: KINOMEscan; type: binding; details: 1 μM of compound 4; read-out: POC
MAP4K4 = MAP4K4 (Homo sapiens, UniProt O95819); assay: KINOMEscan; type: binding; details: 1 μM of compound 4; read-out: POC
MKNK2 = MKNK2 (Homo sapiens, UniProt Q9HBH9); assay: KINOMEscan; type: binding; details: 1 μM of compound 4; read-out: POC
MLK1 = MLK1 (Homo sapiens, UniProt P80192); assay: KINOMEscan; type: binding; details: 1 μM of compound 4; read-out: POC
MYO3A = MYO3A (Homo sapiens, UniProt Q8NEV4); assay: KINOMEscan; type: binding; details: 1 μM of compound 4; read-out: POC
PIK3CA(H1047Y) = PIK3CA(H1047Y) (Homo sapiens, UniProt P42336, H1047Y); assay: KINOMEscan; type: binding; details: 1 μM of compound 4; read-out: POC
PIK3CB = PIK3CB (Homo sapiens, UniProt P42338); assay: KINOMEscan; type: binding; details: 1 μM of compound 4; read-out: POC
PIP5K2B = PIP5K2B (Homo sapiens, UniProt P78356); assay: KINOMEscan; type: binding; details: 1 μM of compound 4; read-out: POC
PRKD1 = PRKD1 (Homo sapiens, UniProt Q15139); assay: KINOMEscan; type: binding; details: 1 μM of compound 4; read-out: POC
RET = target: T5, RET (Homo sapiens, UniProt P07949); assay: KINOMEscan; type: binding; details: 1 μM of compound 4; read-out: POC
T5 construct: purchased Eurofins DiscoverX Corporation (KINOMEscan screening service)

S6K1 = target: T6, S6K1 (Homo sapiens, UniProt P23443); assay: KINOMEscan; type: binding; details: 1 μM of compound 4; read-out: POC
T6 construct: purchased Eurofins DiscoverX (KINOMEscan service)

STK16 = target: T7, STK16 (Homo sapiens, UniProt O75716); assay: KINOMEscan; type: binding; details: 1 μM of compound 4; read-out: POC
T7 construct: purchased Eurofins DiscoverX (KINOMEscan service)

SYK = target: T8, SYK (Homo sapiens, UniProt P43405); assay: KINOMEscan; type: binding; details: 1 μM of compound 4; read-out: POC
T8 construct: purchased Eurofins DiscoverX Corporation

ULK1 = target: T9, ULK1 (Homo sapiens, UniProt O75385); assay: KINOMEscan; type: binding; details: 1 μM of compound 4; read-out: POC
T9 construct: purchased Eurofins DiscoverX

VEGFR2 = target: T10, VEGFR2 (Homo sapiens, UniProt P35968); assay: KINOMEscan; type: binding; details: 1 μM of compound 4; read-out: POC
T10 construct: purchased Eurofins DiscoverX

YSK1 = target: T11, YSK1 (Homo sapiens, UniProt O00506); assay: KINOMEscan; type: binding; details: 1 μM of compound 4; read-out: POC
T11 construct: purchased Eurofins DiscoverX

Sequence of CLK3 (P49761 whole entry): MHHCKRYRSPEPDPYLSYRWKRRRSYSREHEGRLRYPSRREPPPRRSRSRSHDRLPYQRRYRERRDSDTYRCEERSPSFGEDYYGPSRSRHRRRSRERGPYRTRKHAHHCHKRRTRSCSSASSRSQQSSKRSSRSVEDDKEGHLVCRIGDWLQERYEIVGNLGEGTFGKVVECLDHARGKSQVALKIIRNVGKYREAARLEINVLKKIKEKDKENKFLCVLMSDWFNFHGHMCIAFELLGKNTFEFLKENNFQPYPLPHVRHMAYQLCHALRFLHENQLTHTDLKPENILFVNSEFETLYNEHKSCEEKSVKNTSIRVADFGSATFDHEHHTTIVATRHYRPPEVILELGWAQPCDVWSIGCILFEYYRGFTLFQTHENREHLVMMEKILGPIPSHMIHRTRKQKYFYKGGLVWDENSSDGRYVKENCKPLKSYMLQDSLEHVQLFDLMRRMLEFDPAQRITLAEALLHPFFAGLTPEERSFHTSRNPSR
Sequence of KIT(V559D + V654A) (P10721 26-976 V559D/V654A): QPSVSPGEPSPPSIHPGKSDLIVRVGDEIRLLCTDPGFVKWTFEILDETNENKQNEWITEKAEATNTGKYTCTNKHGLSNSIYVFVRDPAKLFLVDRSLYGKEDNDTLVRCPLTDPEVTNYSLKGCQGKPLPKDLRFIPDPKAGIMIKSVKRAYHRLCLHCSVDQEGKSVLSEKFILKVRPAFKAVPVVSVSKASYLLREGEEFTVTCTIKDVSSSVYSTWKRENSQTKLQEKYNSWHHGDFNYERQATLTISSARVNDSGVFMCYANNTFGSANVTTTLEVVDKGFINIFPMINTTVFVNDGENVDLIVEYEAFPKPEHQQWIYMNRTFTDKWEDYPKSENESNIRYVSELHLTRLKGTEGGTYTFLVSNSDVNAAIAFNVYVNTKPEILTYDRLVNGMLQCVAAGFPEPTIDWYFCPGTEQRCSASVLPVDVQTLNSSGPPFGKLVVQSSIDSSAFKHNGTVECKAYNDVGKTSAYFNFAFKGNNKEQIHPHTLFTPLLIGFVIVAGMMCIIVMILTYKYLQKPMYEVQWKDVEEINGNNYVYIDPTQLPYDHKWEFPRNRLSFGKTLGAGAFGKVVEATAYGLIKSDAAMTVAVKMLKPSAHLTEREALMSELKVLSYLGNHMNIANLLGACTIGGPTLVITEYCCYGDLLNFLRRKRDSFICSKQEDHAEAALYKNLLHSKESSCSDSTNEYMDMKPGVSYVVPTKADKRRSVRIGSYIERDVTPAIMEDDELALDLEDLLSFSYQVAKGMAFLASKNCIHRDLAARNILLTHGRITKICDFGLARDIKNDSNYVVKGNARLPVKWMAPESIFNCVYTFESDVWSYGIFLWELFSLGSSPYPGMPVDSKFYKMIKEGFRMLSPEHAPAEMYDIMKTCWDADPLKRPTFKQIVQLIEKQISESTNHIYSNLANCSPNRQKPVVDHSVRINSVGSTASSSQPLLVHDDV
T3 sequence (Q05397 whole entry): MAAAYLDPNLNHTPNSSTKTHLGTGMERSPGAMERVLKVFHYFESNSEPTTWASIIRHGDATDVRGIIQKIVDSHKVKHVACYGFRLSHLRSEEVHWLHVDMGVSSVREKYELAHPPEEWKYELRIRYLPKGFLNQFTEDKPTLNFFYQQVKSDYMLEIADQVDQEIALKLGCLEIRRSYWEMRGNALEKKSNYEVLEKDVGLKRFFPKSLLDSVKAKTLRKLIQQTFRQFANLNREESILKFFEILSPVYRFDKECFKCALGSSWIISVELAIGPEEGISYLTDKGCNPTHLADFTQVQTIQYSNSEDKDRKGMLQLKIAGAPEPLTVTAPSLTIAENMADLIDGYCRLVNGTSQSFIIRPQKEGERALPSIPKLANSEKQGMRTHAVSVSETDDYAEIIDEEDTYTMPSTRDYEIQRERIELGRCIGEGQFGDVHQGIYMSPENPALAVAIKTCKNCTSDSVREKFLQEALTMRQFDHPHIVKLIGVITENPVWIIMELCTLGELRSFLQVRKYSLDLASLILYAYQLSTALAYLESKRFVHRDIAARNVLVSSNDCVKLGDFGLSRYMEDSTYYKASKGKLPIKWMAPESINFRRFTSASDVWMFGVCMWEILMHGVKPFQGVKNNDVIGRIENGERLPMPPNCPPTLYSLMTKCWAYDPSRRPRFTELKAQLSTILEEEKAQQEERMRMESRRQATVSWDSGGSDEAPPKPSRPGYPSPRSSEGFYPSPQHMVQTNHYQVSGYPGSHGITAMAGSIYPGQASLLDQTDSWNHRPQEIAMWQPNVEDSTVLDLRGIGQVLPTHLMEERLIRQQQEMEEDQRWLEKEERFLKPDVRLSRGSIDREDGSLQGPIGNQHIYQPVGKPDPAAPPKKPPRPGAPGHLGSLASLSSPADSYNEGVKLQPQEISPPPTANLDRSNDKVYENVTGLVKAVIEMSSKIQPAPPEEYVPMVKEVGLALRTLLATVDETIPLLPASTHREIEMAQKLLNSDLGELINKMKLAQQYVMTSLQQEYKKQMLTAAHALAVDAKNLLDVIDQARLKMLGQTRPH
Sequence of PIK3CB (P42338 whole entry): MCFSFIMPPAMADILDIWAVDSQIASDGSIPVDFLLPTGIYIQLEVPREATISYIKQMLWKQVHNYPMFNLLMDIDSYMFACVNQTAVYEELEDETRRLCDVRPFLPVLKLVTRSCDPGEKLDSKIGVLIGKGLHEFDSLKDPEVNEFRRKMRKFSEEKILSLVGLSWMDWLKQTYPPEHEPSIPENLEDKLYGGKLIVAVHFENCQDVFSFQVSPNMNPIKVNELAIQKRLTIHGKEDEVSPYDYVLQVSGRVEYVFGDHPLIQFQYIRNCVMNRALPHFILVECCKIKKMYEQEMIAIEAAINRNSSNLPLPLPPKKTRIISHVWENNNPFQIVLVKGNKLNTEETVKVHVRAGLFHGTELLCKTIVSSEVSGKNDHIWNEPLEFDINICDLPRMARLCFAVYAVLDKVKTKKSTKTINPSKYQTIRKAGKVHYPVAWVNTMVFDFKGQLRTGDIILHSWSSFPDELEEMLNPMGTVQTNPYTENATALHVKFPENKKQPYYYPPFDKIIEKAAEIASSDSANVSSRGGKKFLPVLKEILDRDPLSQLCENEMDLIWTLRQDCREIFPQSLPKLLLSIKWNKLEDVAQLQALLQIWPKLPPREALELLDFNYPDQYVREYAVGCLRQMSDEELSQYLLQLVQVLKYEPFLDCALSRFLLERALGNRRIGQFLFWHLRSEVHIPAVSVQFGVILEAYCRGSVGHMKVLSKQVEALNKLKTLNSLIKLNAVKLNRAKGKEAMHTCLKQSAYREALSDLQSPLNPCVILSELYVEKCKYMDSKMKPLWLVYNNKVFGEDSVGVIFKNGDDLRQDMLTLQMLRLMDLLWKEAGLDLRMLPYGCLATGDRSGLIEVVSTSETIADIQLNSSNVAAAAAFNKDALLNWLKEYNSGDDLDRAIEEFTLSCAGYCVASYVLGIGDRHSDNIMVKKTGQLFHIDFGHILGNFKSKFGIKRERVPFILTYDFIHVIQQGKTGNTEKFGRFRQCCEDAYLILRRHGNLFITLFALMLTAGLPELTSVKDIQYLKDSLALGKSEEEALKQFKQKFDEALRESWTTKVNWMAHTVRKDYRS
Sequence of PRKD1 (Q15139 whole entry): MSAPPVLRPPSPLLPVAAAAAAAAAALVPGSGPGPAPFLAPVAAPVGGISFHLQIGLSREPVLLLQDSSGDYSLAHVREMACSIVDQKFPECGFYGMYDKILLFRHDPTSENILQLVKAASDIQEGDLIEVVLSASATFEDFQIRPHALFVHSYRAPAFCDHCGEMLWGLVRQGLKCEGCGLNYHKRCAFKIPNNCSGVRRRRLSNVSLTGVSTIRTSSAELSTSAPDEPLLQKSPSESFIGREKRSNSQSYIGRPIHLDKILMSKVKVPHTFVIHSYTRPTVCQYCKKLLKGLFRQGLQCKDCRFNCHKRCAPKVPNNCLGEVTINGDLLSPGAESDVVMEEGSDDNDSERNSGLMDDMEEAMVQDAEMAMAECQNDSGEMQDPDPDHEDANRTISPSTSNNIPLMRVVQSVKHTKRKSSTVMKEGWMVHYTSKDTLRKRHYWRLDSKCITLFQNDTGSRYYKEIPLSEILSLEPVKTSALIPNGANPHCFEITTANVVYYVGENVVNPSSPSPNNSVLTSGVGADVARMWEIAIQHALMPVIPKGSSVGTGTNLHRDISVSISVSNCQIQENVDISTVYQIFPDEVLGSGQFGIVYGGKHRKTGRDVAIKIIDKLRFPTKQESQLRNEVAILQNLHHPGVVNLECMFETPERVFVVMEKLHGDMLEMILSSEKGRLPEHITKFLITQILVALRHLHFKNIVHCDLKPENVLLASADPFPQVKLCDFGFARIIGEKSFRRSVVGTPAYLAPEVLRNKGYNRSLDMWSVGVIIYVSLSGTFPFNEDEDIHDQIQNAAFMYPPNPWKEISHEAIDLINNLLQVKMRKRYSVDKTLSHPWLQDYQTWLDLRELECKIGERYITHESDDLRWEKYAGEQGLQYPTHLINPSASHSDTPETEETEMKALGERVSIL
Sequence of DAPK3 (O43293 whole entry): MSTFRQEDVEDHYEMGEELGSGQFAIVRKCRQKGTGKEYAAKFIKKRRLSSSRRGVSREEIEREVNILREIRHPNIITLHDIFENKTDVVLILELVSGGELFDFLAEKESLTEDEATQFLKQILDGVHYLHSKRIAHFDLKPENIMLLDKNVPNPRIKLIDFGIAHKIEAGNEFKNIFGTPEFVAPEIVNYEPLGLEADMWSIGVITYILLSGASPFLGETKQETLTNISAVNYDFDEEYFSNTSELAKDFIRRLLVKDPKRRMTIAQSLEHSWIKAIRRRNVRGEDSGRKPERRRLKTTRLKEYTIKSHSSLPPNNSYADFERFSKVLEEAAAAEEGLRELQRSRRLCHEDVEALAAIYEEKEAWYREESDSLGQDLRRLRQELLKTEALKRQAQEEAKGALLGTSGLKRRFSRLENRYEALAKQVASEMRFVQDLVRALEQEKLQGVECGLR

C=CC(=O)Nc1ccc(OC)c(Nc2cc(-c3[nH]c(CC)nc3-c3cccc(NC(=O)c4cccc5c4NC(=O)c4ccccc4N5)c3)ccn2)c1 [Compound 4, N-(3-(5-(2-((5-Acrylamido-2-methoxyphenyl)amino)pyridin-4-yl)-2-ethyl-1H-imidazol-4-yl)phenyl)-11-oxo-10,11-dihydro-5H-dibenzo[b,e][1,4]diazepine-9-carboxamide]
IC50 [1]: 1.8 ± 0.3 nM
remaining binding at 1 µM [2]: 100%
remaining binding at 1 µM (ALK(C1156Y)): 87%
remaining binding at 1 µM (CLK3): 74%
remaining binding at 1 µM (DAPK3): 62%
remaining binding at 1 µM (DDR2): 100%
remaining binding at 1 µM (FAK): 99%
remaining binding at 1 µM (GRK1): 94%
remaining binding at 1 µM (KIT(V559D + V654A)): 93%
remaining binding at 1 µM (MAP4K3): 9.5%
remaining binding at 1 µM (MAP4K4): 6.1%
remaining binding at 1 µM (MKNK2): 100%
remaining binding at 1 µM (MLK1): 86%
remaining binding at 1 µM (MYO3A): 14%
remaining binding at 1 µM (PIK3CA(H1047Y)): 66%
remaining binding at 1 µM (PIK3CB): 90%
remaining binding at 1 µM (PIP5K2B): 100%
remaining binding at 1 µM (PRKD1): 42%
remaining binding at 1 µM (RET): 99%
remaining binding at 1 µM (S6K1): 100%
remaining binding at 1 µM (STK16): 100%
remaining binding at 1 µM (SYK): 63%
remaining binding at 1 µM (ULK1): 100%
remaining binding at 1 µM (VEGFR2): 100%
remaining binding at 1 µM (YSK1): 76%
